Earlier results in US20020025341A1, “Controlled release formulation of divalproex sodium” (priority 1998, published 2002).
Where two headings read alike, the source gives them in different places.

What was measured:
[1] = patients consuming valproate

| Structure (SMILES) | patients affected by GI irritation [1] | free fraction (plasma protein binding) (plasma proteins; at 40 μg/ml) | free fraction (plasma protein binding) (plasma proteins; at 130 μg/ml) [%] | half life (in adults) | half life (in children) |
| --- | --- | --- | --- | --- | --- |
| CCCC(CCC)C(=O)O [valproate] | up to one third of patients | approximately 10% | 18.5 | – | – |
| CCCC(CCC)C(=O)O [valproic acid, 2-Propylpentanoic acid] | – | – | – | between six and seventeen hours | between four and fourteen hours |
